Data set [1] concerns ACP-induced hepatotoxicity. Put plainly: Protection from ACP-induced hepatotoxicity in mice (plasma ALT levels). Type of data set: in vivo, Male Swiss-Webster mice. The method, then: Male Swiss-Webster mice weighing 24-34 g were administered ACP [360 mg (or 2.45 mmol)/kg, i.p.].
In protocol 4′B, a priming dose of the prodrug (1.25 mmole/kg, i.p.) was administered 60 min prior to ACP followed by a subsequent dose (2.50 mmol/kg) 30 min post-ACP.
In protocol 3′B, the pre- and post-ACP doses were reversed.
In protocol 1, a single dose of drug was administered 30 min post-ACP.
Protocol 1′ is identical to 3′B except that the pH of the injection solution was not adjusted. In the B series, the pH of the injection solution was adjusted to neutrality with dilute, aqueous NaOH or HCl

For data set [2] the following is noted: unlike GSH or its carboxy esters with free -SH groups that are subject to oxidation; refs (9, 17); cited from earlier work.

The values below come from patent publication US9173917B2, “Methods for reducing oxidative stress in a cell with a sulfhydryl protected glutathione prodrug” (Max International, LLC, priority 2003, dated 2015).

“Also recorded” adds a separate entry of the source.

On to `N[C@H](CSSC[C@H](NC(=O)CC[C@H](N)C(=O)O)C(=O)NCC(=O)O)C(=O)O` [D-CySSG], for which the “hepatoprotection against ACP toxicity” value in data set [1] (FIG. 1, mouse model, protocol 4'B) is given as “lack of significant activity; also recorded: not hepatoprotective; also recorded: lack of hepatoprotection”. In data set [1] (FIG. 1, protocol 4'B: prodrug 1.25 mmole/kg i.p. 60 min prior to ACP, 2.50 mmol/kg 30 min post-ACP, ACP 360 mg/kg i.p., ALT 24 hrs post-ACP), the “plasma alanine aminotransferase (ALT) levels of ACP-treated mice” value was “statistically similar to that for ACP alone; also recorded: comparable to that for ACP alone”.
`N[C@@H](CCC(=O)N[C@@H](CSSC[C@H](N)C(=O)O)C(=O)NCC(=O)O)C(=O)O` [L-CySSG, L-cysteine-GSH disulfide]: the stability result in data set [2] is “stable”.
On to `CCOC(=O)CNC(=O)C(CSC(C)=O)NC(=O)CCC(N)C(=O)O` (stereo not shown) [S-Ac-GSH-OEt, S-acetylglutathione ethyl ester], for which, in data set [1] (FIGS. 1, 3 and 4), the “usefulness for treating/preventing oxidative stress in the mouse model” value is recorded as “useful for treating oxidative stress”.
